The test system of data set [1] is non-muscle myosin II ATPases. Also on record: method as in vendor brief description. The conditions noted are these: ref vendor brief description; cited from earlier work.
For data set [2], the system named is Toxoplasma gondii RH-2F tachyzoites. Nature of the data set: microbe, parasite or virus in culture. The conditions noted are these: 72 h.
Data set [3] addresses transient receptor potential vanilloid-1 (TRPV1). More on the design: method as in vendor brief description. The conditions noted are these: ref vendor brief description; cited from earlier work.
A further data set has as its system PDE4. More on the design: method as in vendor brief description. As to conditions: ref vendor brief description; cited from earlier work.
A further data set deals with TNF-α. More on the design: method as in vendor brief description. The conditions noted are these: ref vendor brief description; cited from earlier work.
A further data set relates to B-Raf. More on the design: method as in vendor brief description. The conditions noted are these: ref vendor brief description; cited from earlier work.
A further data set concerns c-Raf. Also on record: method as in vendor brief description. As to conditions: ref vendor brief description; cited from earlier work.
Another data set has as its system Abl. More on the design: method as in vendor brief description. As to conditions: ref vendor brief description; read-out: IC50 Abl-1; cited from earlier work.
The next data set relates to CSF-1R. More on the design: method as in vendor brief description. The conditions noted are these: ref vendor brief description; cited from earlier work.
The test system of data set [4] is Toxoplasma gondii RH-2F tachyzoites. As to conditions: 72 h, 5 μM.
The target in the next data set is αvβ3 receptor. More on the design: method as in vendor brief description. The conditions noted are these: ref vendor brief description; cited from earlier work.
The target of the next data set is αvβ5 receptor. Also on record: method as in vendor brief description. The conditions noted are these: ref vendor brief description; cited from earlier work.
The test system of a further data set is SGLT2. Also on record: method as in vendor brief description. As to conditions: ref vendor brief description; cited from earlier work.
The subject of the next data set is PPARδ. More on the design: method as in vendor brief description. As to conditions: ref vendor brief description; cited from earlier work.
Data set [5] concerns the target cannabinoid type 1 receptor. More on the design: method as in vendor brief description. As to conditions: ref vendor brief description; cited from earlier work.
For the next data set, the system named is 5-HT2B. Also on record: method as in vendor brief description. As to conditions: ref vendor brief description; cited from earlier work.
In another data set the test system is CXCR4. Also on record: method as in vendor brief description. The conditions noted are these: ref vendor brief description; cited from earlier work.
Data set [6] concerns CXCL12-mediated chemotaxis. The conditions noted are these: read-out: IC50 CXCL12-mediated chemotaxis; ref vendor brief description; cited from earlier work.
For a further data set, the system named is Pim1. The conditions noted are these: read-out: IC50 Pim1; ref vendor brief description; cited from earlier work.
The next data set addresses gastric H+, K+-ATPase. More on the design: method as in vendor brief description. As to conditions: at pH 6.5; ref vendor brief description; cited from earlier work.
The target of another data set is P-glycoprotein. More on the design: method as in vendor brief description. The conditions noted are these: ref vendor brief description; cited from earlier work.
The next data set relates to hedgehog. Also on record: method as in library vendor description. As to conditions: ref library vendor description; cited from earlier work.
The test system of the next data set is P-gp. More on the design: method as in library vendor description. As to conditions: ref library vendor description; cited from earlier work.
The next data set has as its target 5-HT7 receptor. Also on record: method as in vendor brief description. The conditions noted are these: ref vendor brief description; cited from earlier work.
A further data set relates to 5-HT3A. More on the design: method as in vendor brief description. As to conditions: ref vendor brief description; read-out: IC50 5-HT(3A); cited from earlier work.
Another data set concerns 5-HT1A. Also on record: method as in vendor brief description. As to conditions: ref vendor brief description; cited from earlier work.
In the next data set the test system is 5-HT(1B). Also on record: method as in vendor brief description. As to conditions: ref vendor brief description; cited from earlier work.
A further data set concerns SERT. Also on record: method as in vendor brief description. As to conditions: ref vendor brief description; cited from earlier work.
Data set [7] deals with epidermal growth factor receptor (EGFR). Also on record: method as in vendor brief description. As to conditions: ref vendor brief description; read-out: IC50 EFGR; cited from earlier work.
A further data set deals with JAK1. More on the design: method as in vendor brief description. As to conditions: ref vendor brief description; cited from earlier work.
A further data set deals with JAK3. More on the design: method as in vendor brief description. As to conditions: ref vendor brief description; cited from earlier work.
The test system of the next data set is TGM2. More on the design: method as in vendor brief description. As to conditions: ref vendor brief description; cited from earlier work.
Where [8] appears, read: read-out: Parasite inhibition (%) mean, preliminary screen of compound library, mean.

We go through 16 compounds from article PMC7216583 (Parasites & Vectors, 2020).

The structures appear in SMILES notation. Where a name gives a salt, the structure may show the parent alone. Read-outs that look alike come from different tables or passages of the source.

For orientation: IC50 means the concentration that gives 50% inhibition. As to `Cc1ccc2c(c1)C(=O)[C@]1(O)CCN(c3ccccc3)C1=N2` [(−)-Blebbistatin], the IC50 in data set [1] is 500 to 5000 nM. Moreover, the inhibition of growth at 5 µM in [2] (setting [8]) is -56.7%.

`CC(=O)Nc1nc2c(Oc3cc(-c4ccc(C(F)(F)F)cc4)ncn3)cccc2s1` [AMG-517]: the IC50 in data set [3] was less than 10 nM. Moreover, the inhibition of growth at 5 µM in data set [2] (setting [8]) worked out at 0.6%.

Regarding `CCOc1cc([C@@H](CS(C)(=O)=O)N2C(=O)c3cccc(NC(C)=O)c3C2=O)ccc1OC` [Apremilast (CC-10004)], the IC50 with PDE4 is 74 nM; in the data set on TNF-α it was 77 nM. The inhibition of growth at 5 µM in [2] (setting [8]) is -1.4%.

On to `COc1cc2ncnc(Oc3cccc(NC(=O)Nc4cc(C(C)(C)C(F)(F)F)on4)c3)c2cc1OC` [CEP-32496], for which the IC50 in the data set on B-Raf was 36 nM; in the data set on c-Raf, 39 nM; in the data set with Abl, 3 nM; in the data set with CSF-1R, 9 nM. Also, in data set [2] (setting [8]), the inhibition of growth at 5 µM was 0%.

On to `CC(C)[C@H]1C(=O)N[C@@H](CCCNC(=N)N)C(=O)NCC(=O)N[C@@H](CC(=O)O)C(=O)N[C@H](Cc2ccccc2)C(=O)N1C` [Cilengitide (EMD 121974, NSC 707544)], for which, in [4], the “Parasite inhibition (%) mean” value is recorded as 4.9%. The IC50 is […] at αvβ3 receptor and 79 nM on αvβ5 receptor.

Take `OC[C@H]1O[C@@H](c2ccc(Cl)c(Cc3ccc(O[C@H]4CCOC4)cc3)c2)[C@H](O)[C@@H](O)[C@@H]1O` [Empagliflozin (BI10773)]: the IC50 with SGLT2 was 3.1 nM. For the same compound, in [2] (setting [8]), the inhibition of growth at 5 µM was determined as 3.8%.

`O=C(NCCS(=O)(=O)c1ccc(C(F)(F)F)cn1)c1ccc(Cl)cc1` [GSK3787]: in the data set on PPARδ, the “pIC50 PPARδ” value was “GSK3787 is as a potent and selective antagonist of PPARδ with pIC50 of 6.6”. In addition, in data set [2] (setting [8]), the inhibition of growth at 5 µM is 9%.

Usually Ki stands for a dissociation constant, usually derived from enzyme kinetics or from competition with a known ligand. In the case of `CCNC1(C(N)=O)CCN(c2ncnc3c2nc(-c2ccccc2Cl)n3-c2ccc(Cl)cc2)CC1` [Otenabant (CP-945598) HCl], in [5], the Ki is 0.7 nM. Moreover, the inhibition of growth at 5 µM in [2] (setting [8]) was determined as 0.3%.

In the case of `N#Cc1cc(CN2CCC(Nc3ncnc4sc(Cl)cc34)CC2)ccc1F` [PRX-08066], the IC50 in the data set with 5-HT2B was 3.4 nM. The inhibition of growth at 5 µM in data set [2] (setting [8]) was found to be 40.5%.

Turning to `c1cc(CN2CCCNCCNCCCNCC2)ccc1CN1CCCNCCNCCCNCC1` [Plerixafor (AMD3100)], the IC50 is 44 nM with CXCR4 and 5.7 nM in data set [6]. Also, in data set [2] (read-out: Parasite inhibition (%) mean), the inhibition of growth at 5 µM stood at 12.9%.

On to `O=C1NC(=O)/C(=C\c2cccc(C(F)(F)F)c2)S1` [SMI-4a], for which the IC50 in the data set with Pim1 is 17 nM. In data set [2] (setting [8]), the inhibition of growth at 5 µM came out at 8.9%.

In the case of `CNCc1cc(-c2ccccc2F)n(S(=O)(=O)c2cccnc2)c1` [TAK-438], the IC50 at gastric H+, K+-ATPase was 19 nM. The inhibition of growth at 5 µM in data set [2] (setting [8]) was -9.6%.

For orientation: Kd means the equilibrium constant for the complex coming apart. `COc1cc2c(cc1OC)CN(CCc1ccc(NC(=O)c3cc(OC)c(OC)cc3NC(=O)c3cnc4ccccc4c3)cc1)CC2` [Tariquidar]: the Kd on P-glycoprotein was 5.1 nM. Also, the inhibition of growth at 5 µM in data set [2] (setting [8]) worked out at 0.4%.

For the compound `CS(=O)(=O)c1ccc(C(=O)Nc2ccc(Cl)c(-c3ccccn3)c2)c(Cl)c1` [Vismodegib (GDC-0449)], the IC50 was 3 nM in the data set with hedgehog and […] with P-gp. Moreover, the inhibition of growth at 5 µM in data set [2] (read-out: Parasite inhibition (%) mean, preliminary screen, mean) came out at 25.5%.

As to `Cc1ccc(Sc2ccccc2N2CCNCC2)c(C)c1` [Vortioxetine (Lu AA21004) hydrobromide], the IC50 at 5-HT7 receptor is 19 nM; in the data set with 5-HT3A, 3.7 nM; in the data set with 5-HT1A, 15 nM; in the data set with 5-HT(1B) it was 33 nM; with SERT it was 1.6 nM. Further, the inhibition of growth at 5 µM in data set [2] (setting [8]) is 66.8%.

Regarding `CC(C)N(CCC(=O)c1ccc2ccccc2c1)Cc1ccccc1` [ZM 39923 HCl], the IC50 in [7] was 5600 nM; in the data set with JAK1, 4400 nM; with JAK3 it was 7100 nM; in the data set on TGM2, 10 nM. The inhibition of growth at 5 µM in data set [2] (setting [8]) stood at 13.9%.
